Experiment [1] has as its system mouse eggs. The experiment can be described thus: [Ca2+]i monitoring in fura-2 D loaded mouse eggs after agonist injection or exposure. In kind it is cell-based. To be noted: for Frequency of [Ca2+]i rises, in words: SF and adenophostin A compared with fertilization, p<0.05; for Amplitude of 1st rise / Amplitude of 3rd rise: [Ca2+]i; for Amplitude of 1st rise / Amplitude of 3rd rise / # of rises in 5 min / Duration of 1st rise / Duration of 3rd rise: mean ± SEM; for # of rises in 5 min: frequency during 5 min after return of first rise to baseline (Adenophostin A, SF) or after addition (SrCl2, thimerosal). Here is the method:
Microinjection procedures were carried out as previously described (Wu et al., Dev. Biol. 203: 369-81 (1998)). Briefly, eggs were placed in a 50 μl microdrop of TL-Hepes supplemented with 2.5% sucrose and 20% FCS under paraffin oil and injected using manipulators (Narishige, Medical Systems Corp., Great Neck, N.Y.) mounted on a Nikon Diaphot microscope (Nikon, Inc., Garden City, N.Y.). Injection pipettes were loaded by suction from a 2-3 μl drop containing one of the following compounds: 0.5 mM fura-2 dextran (fura-2 D; […] K. Tanzawa, Sankyo Colo., Tokyo, Japan). All reagents were diluted in buffer containing 75 mM KCl and 20 mM HEPES, pH 7.0 and were delivered into the ooplasm by pneumatic pressure using a PLI-100 picoinjector (Medical Systems Corp.). […] Wu et al., 1998), and 100 nM for adenophostin A. […] Exp. Zool. 226: 311-14 (1983); and […] et al., J. Reprod. […] Swann, Biochem J. 287: 79-84 (1992); and Sato et al., Biol. Reprod. 58: 867-73 (1998)). […] Activation was started in all cases at 16 hr post hCG administration (phCG) and eggs evaluated visually 2 hr later by observing second polar body extrusion (18 hr phCG) and 5 hr post-treatment by evaluation of pronuclear formation. After the activation procedure and the assigned incubation period (1, 2, 4 or 8 hr), eggs were collected in 5 μl Dulbecco's phosphate buffered solution (DPBS)/polyvinylpyrrolidone (3 mg/ml, PVP) and stored at -80° C. […] Ethanol activation was carried out by exposing eggs to a 7% ethanol solution in TL-Hepes plus 3 mg/ml bovine serum albumin (BSA) for 5 min at 37° C. After the treatment, eggs were washed several times in TL-Hepes, and cultured for 8 hr (24 hr-phCG). […] Biol. 166: 729-39 (1994)) was accomplished by incubating eggs with 5 μM ionomycin for 5 min in Ca^2+ free-DPBS plus 3 mg/ml BSA. Eggs were then washed in TL-Hepes/1 mg/ml BSA, placed in DMAP/KSOM (2 mM) for 4 hr and cultured for 4 hr after carefuilly washing them free of DMAP. Eggs activated with SrCl2 were incubated for 2 or 4 hr in a Ca^2+-free M-16-like medium supplemented with 10 mM SrCl2. The treated eggs were then washed in TL-Hepes supplemented with 5% FCS and cultured for 2, 4 or 6 hr, depending on the experiment. […] Fluorescence Recordings and [Ca^2+]i Determinations Monitoring of [Ca^2+]i levels using fura-2 D loaded eggs was carried out as previously described (Wu et al., 1998). UV illumination was provided by a 75 watt xenon arc lamp, and 340 and 380 nm excitation wavelengths were utilized. The intensity of the UV light was attenuated 32-fold with neutral density filters, and a photomultiplier tube quantified the emitted light after passing through a 500 nm barrier filter. The fluorescence signal was averaged for the whole egg. A modified Phoscan 3.0 software program run on a 486 IBM-compatible system controlled the rotation of the filter wheel and shutter apparatus to alternate wavelengths. Free [Ca^2+]i was determined from the 340 nm/380 nm ratio of fluorescence. Rmin and Rmax were calculated using […] fura-2 D in Ca^2+-free DPBS supplemented with 2 mM EDTA (Rmin) or 2 mM CaCl2 (Rmax) and with 60% sucrose to correct for intracellular viscosity (Grynkiewicz et al., J. Biol. Chem. 260: 3440-50 (1985); and Poenie, Cell Calcium 11: 85-91 (1990)). The same solutions were also used alone for background subtractions. Ca^2+ measurements carried out in the presence of extracellular SrCl2 are presented as fluorescence ratios of the 340 nm/380 nm excitation wavelengths. Calculations of the [Ca^2+]i concentration was in this case not performed, since fura-2 has also some affinity for Sr^2+. The presence of intracellular Sr^2+ therefore interferes and prevents obtaining […] and/or Sr2+ intracellular concentrations (Hajnoczky et al., EMBO J., 16: 3533-43 (1997)). Eggs were measured individually in 35 μl drops of TL-Hepes medium placed on a glass coverslip on the bottom of a plastic culture dish under paraffin oil. […]

Experiment [2] concerns IP3R-1. The experiment can be described thus: Western blot quantification of IP3R-1 immunoreactivity in mouse eggs. In kind it is cell-based. To be noted: for IP3R-1 down-regulation (degradation): activation started 16 hr phCG, band intensity relative to MII eggs. The source says: (§1) Several commonly used parthenogenetic agents were used during the course of these studies, including ethanol and ionomycin, which induce a single [Ca^2+]i rise (Cuthbertson, J. Exp. Zool. 226: 311-14 (1983); and Shiina et al., J. Reprod. Fert 97: 143-50 (1993)), and others such as adenophostin A, SF, thimerosal, and SrCl2 that evoke [Ca^2+]i oscillations (Kline et al., Dev. Biol. 149: 80-9 (1992); Swann, Biochem J. 287: 79-84 (1992); and Sato et al., Biol. Reprod. 58: 867-73 (1998)). The activating compounds were either injected into eggs (e.g., adenophostin A and SF, see microinjection procedures for details) or added to the eggs' culture media (e.g., thimerosal, SrCl2). Activation was started in all cases at 16 hr post hCG administration (phCG) and eggs evaluated visually 2 hr later by observing second polar body extrusion (18 hr phCG) and 5 hr post-treatment by evaluation of pronuclear formation. After the activation procedure and the assigned incubation period (1, 2, 4 or 8 hr), eggs were collected in 5 μl Dulbecco's phosphate buffered solution (DPBS)/polyvinylpyrrolidone (3 mg/ml, PVP) and stored at −80° C.
(§2) Ethanol activation was carried out by exposing eggs to a 7% ethanol solution in TL-Hepes plus 3 mg/ml bovine serum albumin (BSA) for 5 min at 37° C. After the treatment, eggs were washed several times in TL-Hepes, and cultured for 8 hr (24 hr-phCG). Activation with ionomycin and 6-dimethylaminopurine (DMAP), a kinase inhibitor (Susko-Parrish et al., Dev. Biol. 166: 729-39 (1994)) was accomplished by incubating eggs with 5 μM ionomycin for 5 min in Ca^2+ free-DPBS plus 3 mg/ml BSA. Eggs were then washed in TL-Hepes/1 mg/ml BSA, placed in DMAP/KSOM (2 mM) for 4 hr and cultured for 4 hr after carefuilly washing them free of DMAP. Eggs activated with SrCl2 were incubated for 2 or 4 hr in a Ca^2+-free M-16-like medium supplemented with 10 mM SrCl2. The treated eggs were then washed in TL-Hepes supplemented with 5% FCS and cultured for 2, 4 or 6 hr, depending on the experiment. For thimerosal activation, eggs were exposed to freshly made solutions of 200 μM thimerosal in KSOM for 30 min. Thimerosal-treated eggs were washed free of the reagent using TL-Hepes supplemented with 5% FCS and incubated for 30 min, 1.5, 3.5 or 7.5 hr.
Lactacystin (100 μM; Calbiochem, La Jolla, Calif.), a proteasome inhibitor (Mellgren, J. Biol. Chem. 272: 29899-903 (1997); and Fenteany et al., J. Biol. Chem. 273: 8545-48 (1998)), was used to determine if the proteasome was involved in down-regulation of the IP3R-1 by SF. Eggs were incubated in the inhibitor for 30 min. prior to injections, and injections of SF were carried out in the presence of the inhibitor. Eggs were then cultured in a new drop of KSOM freshly supplemented with lactacystin for 2 hr.
Equal volumes of crude lysates from 15 or 20 mouse eggs and double strength sample buffer (Laemmli, Nature 227: 680-5 (1970)) were combined as previously described (He et al., Biol. Reprod. 57: 1245-55 (1997)). Samples were boiled for 3 min and loaded into a 4% SDS-polyacrylamide gels. The separated proteins were transferred onto nitrocellulose membranes (Micron Separation; Westboro, Mass.) using a Mini Trans Blot Cell (Bio-Rad; Hercules, Calif.) for 2 hr at 4° C. The membranes were first washed in PBS and 0.05% Tween (PBS-T) and then blocked in 6% nonfat dry milk in PBS-T for 1 hr. […]

Experiment [3] has as its system IP3R. The following applies: full IP3R agonist; cited from earlier work.
The subject of experiment [4] is mouse eggs. As to the kind of experiment: Parthenogenetic activation of mouse eggs (second polar body extrusion, pronuclear formation). Format: cell-based. To be noted: for Egg activation: result in words.
Excerpt: as §1
as §2, with “For thimerosal activation, eggs were exposed to freshly made solutions of 200 μM thimerosal in KSOM for 30 min. Thimerosal-treated eggs were washed free of the reagent using TL-Hepes supplemented with 5% FCS and incubated for 30 min, 1.5, 3.5 or 7.5 hr.” left out

SMILES strings stand for the structures. Entries after “also recorded” stand apart in the source; their conditions may differ. Marks after values point to notes of the source that are not given here.

Turning to `Nc1ncnc2c1ncn2[C@@H]1O[C@H](CO)[C@@H](O[C@H]2O[C@H](CO)[C@@H](OP(=O)(O)O)[C@H](OP(=O)(O)O)[C@H]2O)[C@H]1OP(=O)(O)O` [Adenophostin A, adenophostin A], in experiment [1], the “Frequency of [Ca2+]i rises, in words” value is given as “higher frequency”; the “Amplitude of 1st rise” value is listed as 620 ± 30^a, b nM; the “Amplitude of 3rd rise” value is 530 ± 100^a nM; the “# of rises in 5 min” value was 3.9 ± 1.5^a*,*. In experiment [1], the “Duration of 1st rise” value is 260 ± 65^a sec and the “Duration of 3rd rise” value is 70 ± 22^a sec. Besides, the “IP3R-1 down-regulation (degradation)” value in experiment [2] was “significant down-regulation; also recorded: near total down-regulation”. In addition, the “Potency relative to IP3” value in experiment [3] was “approximately 100 fold”.
`[Cl-].[Cl-].[Sr+2]` [SrCl2]: in experiment [1], the “Frequency of [Ca2+]i rises, in words” value was “lower frequency”; the “# of rises in 5 min” value was 1 ± 0.0^b; the “Duration of 1st rise” value is given as 740 ± 290^b sec; the “Duration of 3rd rise” value is recorded as 360 ± 70^b sec. Further, in experiment [2], the “IP3R-1 down-regulation (degradation)” value was “failed to induce any changes”. Further, the Egg activation result in experiment [4] is given as “high rates of egg activation”.
Take `C[CH2][Hg][S]c1ccccc1C(=O)[O-].[Na+]` [Thimerosal, thimerosal]: in experiment [1], the “Frequency of [Ca2+]i rises, in words” value is “low frequency”; the “Amplitude of 1st rise” value is reported as 330 ± 30^b nM; the “Amplitude of 3rd rise” value is on record as 640 ± 90^a nM; the “# of rises in 5 min” value is reported as 1 ± 0.4^b. Moreover, in experiment [1], the “Duration of 1st rise” value was 180 ± 44^a sec and the “Duration of 3rd rise” value is 70 ± 16^a sec. Moreover, the “IP3R-1 down-regulation (degradation)” value in experiment [2] is “rapid and sustained down-regulation”.
As for `CCO` [ethanol], the “IP3R-1 down-regulation (degradation)” value in experiment [2] was “does not induce down regulation of IP3R-1”. Also, in experiment [4], the Egg activation result was “high rates of activation”.
As to `CC(=O)N[C@@H](CSC(=O)[C@]1([C@@H](O)C(C)C)NC(=O)[C@H](C)[C@@H]1O)C(=O)O` [lactacystin], the “Effect on SF-induced degradation of IP3R-1” value in experiment [2] (100 μM inhibitor, 30 min preincubation, 2 hr after SF injection) is given as “markedly inhibited”. Moreover, the “Cell cycle progression assessed by extrusion of the polar body in SF-injected eggs” value in experiment [4] (eggs pretreated and incubated with inhibitor, not shown) is given as “clearly delayed”.
